“And” between values parts separate entries of the source, which are not always exact repeats. Identical values can stand only once. Inconclusive results and toxic doses are left out. Peptide text beside a SMILES is read from it.
System: BDF1 mice, B16 melanoma ip, median survival T/C
Test: NCI In Vivo Anticancer Drug Screen. Data for tumor model B16 Melanoma (intraperitoneal) in B6D2F1 (BDF1) mice
Conditions: endpoint: median survival time, higher = longer survival
Procedure, shortened: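 Survival or tumor size is measured after treatment of tumor-bearing mice and normalised to the vehicle-treated control group.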

[1] = dose: 12.5 mg/kg/injection, schedule: Q01DX009 (ip), vehicle: Klucel (hydroxypropylcellulose) (HPC)
[2] = dose: 12.5 mg/kg/injection, schedule: Q01DX009 (ip), vehicle: saline with Tween-80
[3] = dose: 12.5 mg/kg/injection, schedule: Q01DX009 (ip), vehicle: saline
[4] = dose: 25.0 mg/kg/injection, schedule: Q01DX009 (ip), vehicle: Klucel (hydroxypropylcellulose) (HPC)
[5] = dose: 25.0 mg/kg/injection, schedule: Q01DX009 (ip), vehicle: saline with Tween-80
[6] = dose: 25.0 mg/kg/injection, schedule: Q01DX009 (ip), vehicle: saline
[7] = dose: 50.0 mg/kg/injection, schedule: Q01DX009 (ip), vehicle: Klucel (hydroxypropylcellulose) (HPC)
[8] = dose: 50.0 mg/kg/injection, schedule: Q01DX009 (ip), vehicle: saline with Tween-80
[9] = dose: 100.0 mg/kg/injection, schedule: Q01DX009 (ip), vehicle: saline with Tween-80
[10] = dose: 100.0 mg/kg/injection, schedule: Q01DX009 (ip), vehicle: saline
[11] = dose: 200.0 mg/kg/injection, schedule: Q01DX009 (ip), vehicle: saline
[12] = dose: 200.0 mg/kg/injection, schedule: Q01DX009 (ip), vehicle: saline with Tween-80
[13] = dose: 100.0 mg/kg/injection, schedule: Q04DX003 (ip), vehicle: saline with Tween-80
[14] = dose: 50.0 mg/kg/injection, schedule: Q01DX009 (ip), vehicle: saline
[15] = dose: 100.0 mg/kg/injection, schedule: Q01DX009 (ip), vehicle: Klucel (hydroxypropylcellulose) (HPC)
[16] = dose: 200.0 mg/kg/injection, schedule: Q01DX009 (ip), vehicle: Klucel (hydroxypropylcellulose) (HPC)
[17] = dose: 400.0 mg/kg/injection, schedule: Q01DX009 (ip), vehicle: Klucel (hydroxypropylcellulose) (HPC)

## COc1ccc2nc3cc(Cl)ccc3c(NCCNCCNCCNc3c4ccc(Cl)cc4nc4ccc(OC)cc34)c2c1
dose: 3.12 mg/kg/injection, schedule: Q01DX009 (ip), vehicle: Klucel (hydroxypropylcellulose) (HPC)
  T/C: 103 % of control
dose: 6.25 mg/kg/injection, schedule: Q01DX009 (ip), vehicle: Klucel (hydroxypropylcellulose) (HPC)
  T/C: 107 % of control
[1]
  T/C: 113 % of control
[2]
  T/C: 164 % of control
[3]
  T/C: 155 % of control
[4]
  T/C: 113 % of control
[5]
  T/C: 160 % of control
[6]
  T/C: 150 % of control
[7]
  T/C: 113 % of control
[8]
  T/C: 119 % of control
[9]
  T/C: 90 % of control

## O=c1c(O)c(-c2ccc(O)c(O)c2)oc2cc(O)cc(O)c12
dose: 25.0 mg/kg/injection, schedule: Q02DX009 (ip), vehicle: saline
  T/C: 89 % of control
dose: 50.0 mg/kg/injection, schedule: Q02DX009 (ip), vehicle: saline
  T/C: 88 % of control
dose: 100.0 mg/kg/injection, schedule: Q02DX009 (ip), vehicle: saline
  T/C: 93 % of control
dose: 200.0 mg/kg/injection, schedule: Q02DX009 (ip), vehicle: saline with Tween-80
  T/C: 86 % of control
dose: 200.0 mg/kg/injection, schedule: Q02DX009 (ip), vehicle: saline
  T/C: 87 % of control

## CCCCNC=O
[10]
  T/C: 102 % of control
[11]
  T/C: 102 % of control
dose: 400.0 mg/kg/injection, schedule: Q01DX009 (ip), vehicle: saline
  T/C: 116 % of control

## CC1(C)CC1(Br)Br
dose: 6.25 mg/kg/injection, schedule: Q01DX009 (ip), vehicle: saline with Tween-80
  T/C: 112 % of control
[2]
  T/C: 110 % of control
[5]
  T/C: 118 % of control
[8]
  T/C: 102 % of control
[9]
  T/C: 110 % of control

## CCCCCC(=O)c1ccc(OCCCN2CCN(C(=O)OCC)CC2)cc1
[9]
  T/C: 98 % of control
[12]
  T/C: 87 % of control

## OC(C(c1ccccc1)c1ccccn1)(C(F)(F)F)C(F)(F)F (configuration not stated)
dose: 66.0 mg/kg/injection, schedule: Q04DX003 (ip), vehicle: saline with Tween-80
  T/C: 112 % of control
[9]
  T/C: 110 % of control
[13]
  T/C: 117 % of control
dose: 150.0 mg/kg/injection, schedule: Q04DX003 (ip), vehicle: saline with Tween-80
  T/C: 115 % of control
[12]
  T/C: 112 % of control
dose: 400.0 mg/kg/injection, schedule: Q01DX009 (ip), vehicle: saline with Tween-80
  T/C: 105 % of control

## CSCCC(N)C(=O)NC(CC(N)=O)C(=O)O (stereo not drawn) (H-Met-Asn-OH; configuration not given here)
[6]
  T/C: 103 % of control
[14]
  T/C: 108 % of control
[10]
  T/C: 96 % of control
[11]
  T/C: 89 % of control

## CCN(C(=O)CCl)C(C)(C)C(SSSC(c1ccc(Cl)cc1)C(C)(C)N(CC)C(=O)CCl)c1ccc(Cl)cc1 (configuration not stated)
[1]
  T/C: 100 % of control
[4]
  T/C: 98 % of control

## COc1ccc(NC(=O)Nc2ccc(Cl)cc2C)cc1
dose: 100.0 mg/kg/injection, schedule: Q01DX009 (sc), vehicle: olive oil, sesame oil, peanut oil
  T/C: 101 % of control
dose: 200.0 mg/kg/injection, schedule: Q01DX009 (sc), vehicle: olive oil, sesame oil, peanut oil
  T/C: 111 % of control
dose: 400.0 mg/kg/injection, schedule: Q01DX009 (sc), vehicle: olive oil, sesame oil, peanut oil
  T/C: 103 % of control

## CCCCCCCCCCCCNC(=O)Nc1ccc(C)cc1C
[15]
  T/C: 92 % of control
[16]
  T/C: 96 % of control

## C=C1CC2(OC1=O)C(=O)N(C)c1ccc(I)cc12 (configuration not stated)
dose: 6.25 mg/kg/injection, schedule: Q01DX009 (ip), vehicle: saline
  T/C: 100 % of control and 104 % of control
[3]
  T/C: 101 % of control and 112 % of control
[6]
  T/C: 95 % of control and 104 % of control
[14]
  T/C: 110 % of control

## CC(=Nc1ccccc1)C1=C(O)C(Cc2ccccc2)NC1=O (configuration not stated)
[2]
  T/C: 100 % of control
[5]
  T/C: 102 % of control
[8]
  T/C: 106 % of control
[9]
  T/C: 98 % of control and 100 % of control

## CCNC(C)(C)C(SSS)c1ccco1 (configuration not stated)
[1]
  T/C: 98 % of control
[4]
  T/C: 94 % of control
[7]
  T/C: 104 % of control

## CC[N+]1(C2CCC3CCC2C3O)CCOCC1 (configuration not stated)
[6]
  T/C: 105 % of control
[14]
  T/C: 105 % of control
[10]
  T/C: 105 % of control

## O=C(NO)N/N=C/c1ccc(/C=N/NC(=O)NO)cc1
[13]
  T/C: 100 % of control
dose: 200.0 mg/kg/injection, schedule: Q04DX003 (ip), vehicle: saline with Tween-80
  T/C: 102 % of control
dose: 400.0 mg/kg/injection, schedule: Q04DX003 (ip), vehicle: saline with Tween-80
  T/C: 90 % of control

## CCCCCc1ccccc1
[15]
  T/C: 106 % of control
[16]
  T/C: 110 % of control
[17]
  T/C: 90 % of control

## C[N+]1=CN(c2ccc(Cl)cc2)Cc2cc(Cl)ccc21
[15]
  T/C: 88 % of control
dose: 100.0 mg/kg/injection, schedule: Q04DX003 (ip), vehicle: Klucel (hydroxypropylcellulose) (HPC)
  T/C: 88 % of control
[16]
  T/C: 86 % of control
dose: 200.0 mg/kg/injection, schedule: Q04DX003 (ip), vehicle: Klucel (hydroxypropylcellulose) (HPC)
  T/C: 102 % of control
[17]
  T/C: 102 % of control
dose: 400.0 mg/kg/injection, schedule: Q04DX003 (ip), vehicle: Klucel (hydroxypropylcellulose) (HPC)
  T/C: 100 % of control

## COc1cccc(/C=c2\[nH]c(=O)/c(=C/c3cccc(OC)c3OC)[nH]c2=O)c1OC
[1]
  T/C: 89 % of control
[4]
  T/C: 99 % of control
[7]
  T/C: 92 % of control and 96 % of control

## Cc1cc2c(c3oc(C4(C)OC4C4OC4C)cc(=O)c13)C(=O)c1c(O)c(C3CC(C)(N(C)C)C(O)C(C)O3)cc(C3CC(N(C)C)C(O)C(C)O3)c1C2=O (configuration not stated)
dose: 1.3 micrograms/kg/injection, schedule: Q01DX009 (ip), vehicle: clinical formulation
  T/C: 108 % of control
dose: 1.3 micrograms/kg/injection, schedule: Q01DX009 (ip), vehicle: saline
  T/C: 97 % of control
dose: 2.5 micrograms/kg/injection, schedule: Q01DX009 (ip), vehicle: clinical formulation
  T/C: 117 % of control
dose: 2.5 micrograms/kg/injection, schedule: Q01DX009 (ip), vehicle: saline
  T/C: 108 % of control
dose: 4.0 micrograms/kg/injection, schedule: Q01DX009 (ip), vehicle: Klucel (hydroxypropylcellulose) (HPC)
  T/C: 119 % of control
dose: 5.0 micrograms/kg/injection, schedule: Q01DX009 (ip), vehicle: Klucel (hydroxypropylcellulose) (HPC)
  T/C: 122 % of control
dose: 5.0 micrograms/kg/injection, schedule: Q01DX009 (ip), vehicle: saline
  T/C: 107 % of control and 108 % of control
dose: 8.0 micrograms/kg/injection, schedule: Q01DX009 (ip), vehicle: Klucel (hydroxypropylcellulose) (HPC)
  T/C: 110 % of control
dose: 10.0 micrograms/kg/injection, schedule: Q01DX009 (ip), vehicle: clinical formulation
  T/C: 113 % of control
dose: 10.0 micrograms/kg/injection, schedule: Q01DX009 (ip), vehicle: saline
  T/C: 101 % of control and 123 % of control
dose: 20.0 micrograms/kg/injection, schedule: Q01DX009 (ip), vehicle: saline
  T/C: 124 % of control
dose: 40.0 micrograms/kg/injection, schedule: Q01DX009 (ip), vehicle: saline
  T/C: 114 % of control

## Cn1ccc(=Nc2ccc(NC(=O)c3ccc(N=c4ccn(C)c5ccc([N+](=O)[O-])cc45)cc3)cc2)cc1
dose: 3.13 mg/kg/injection, schedule: Q01DX009 (ip), vehicle: other
  T/C: 101 % of control
dose: 6.25 mg/kg/injection, schedule: Q01DX009 (ip), vehicle: other
  T/C: 101 % of control
dose: 12.5 mg/kg/injection, schedule: Q01DX009 (ip), vehicle: other
  T/C: 100 % of control
dose: 25.0 mg/kg/injection, schedule: Q01DX009 (ip), vehicle: other
  T/C: 97 % of control

## CCCCC[C@H](O)/C=C/[C@@H]1[C@@H](C/C=C\CCCC(=O)O)[C@@H](O)C[C@H]1O
dose: 0.25 mg/kg/injection, schedule: Q#A X020 (ip), vehicle: saline with Tween-80
  T/C: 109 % of control
dose: 1.0 mg/kg/injection, schedule: Q#A X020 (ip), vehicle: saline with Tween-80
  T/C: 100 % of control
dose: 2.0 mg/kg/injection, schedule: Q#A X020 (ip), vehicle: saline with Tween-80
  T/C: 110 % of control
dose: 10.0 mg/kg/injection, schedule: Q04DX002 (ip), vehicle: saline
  T/C: 113 % of control
dose: 20.0 mg/kg/injection, schedule: Q04DX002 (ip), vehicle: saline
  T/C: 95 % of control
dose: 40.0 mg/kg/injection, schedule: Q04DX002 (ip), vehicle: saline
  T/C: 108 % of control
dose: 80.0 mg/kg/injection, schedule: Q04DX002 (ip), vehicle: saline
  T/C: 108 % of control
dose: 160.0 mg/kg/injection, schedule: Q04DX002 (ip), vehicle: saline
  T/C: 97 % of control
dose: 320.0 mg/kg/injection, schedule: Q04DX002 (ip), vehicle: saline
  T/C: 97 % of control
